In publication PMC9149975, “The diaryl-imidazopyridazine anti-plasmodial compound, MMV652103, exhibits anti-breast cancer activity” (EXCLI Journal, 2022):
Where two headings read alike, the source gives them in different places.

What was measured:
MCF7 cells = assay: Clonogenic survival assay, MCF7; assay type: cell-based, human; conditions: IC50, 2 x IC50, 4 x IC50 for 24 h
Description: Cells were pre-cultured and treated with the indicated concentrations of MMV652103 for 24 h, washed, collected and re-plated, in drug-free medium, at 1000-2000 cells per well in 35 mm dishes, in triplicate. After 10-21 days the surviving cells were fixed with 3:1 methanol: acetic acid and stained with 0.5 % crystal violet (Sigma-Aldrich, USA) in 100 % methanol. Quantification of colonies was performed using ImageJ 1.5J8 software (USA) (Schneider et al., 2012[73]). Number of colonies was determined for each drug concentration and expressed as a percentage of the vehicle treated control.

[1] = system: MDA-MB-231 (TNBC) breast cancer cells; assay: MTT cytotoxicity assay, MDA-MB-231; assay type: cell-based; conditions: Homo sapiens
Description: Human estrogen-receptor positive (ER+) breast adenocarcinoma cell lines, MCF7 and T47D, were maintained in Roswell Park Memorial Institute-1640 medium (Sigma Aldrich, Missouri, USA) and the human epidermal growth factor receptor 2 positive (HER2+) BT474, and triple negative (TNBC) MDA-MB-231 and MDA-MB-468 cells were maintained in Dulbecco's Modified Eagle's Medium (DMEM) (Sigma Aldrich, Missouri, USA). […]
Cells (3.5×10^3-6×10^3 / well) were seeded in 96-well plates and treated at a 60-70 % confluence with a range of concentrations (0-10 μM) of test compounds or vehicle for 48 h. Cell viability was measured using the 3-(4,5-dimethylthiazol-2-yl)-2,5-diphenyl-trazolium bromide (MTT) assay (11465007001; Sigma Aldrich) according to the manufacturer's instructions. Mean cell viability was calculated as a percentage of the mean vehicle control. A minimum of three independent experiments in quadruplicate were performed from which the IC50 was determined from sigmoidal plots using GraphPad Prism version 6.0 (GraphPad Software, California, USA). The selectivity index (SI) was determined by dividing the IC50 of a non-malignant cell line by the IC50 of a cancer cell line.

## CS(=O)(=O)c1ccc(-c2cnc3ccc(-c4cccc(S(C)(=O)=O)c4)nn23)cc1 [MMV652103]
MCF7 cells
  number of MCF7 cell colonies: dose-dependent reduction
[1]; Fig 2C summary, MTT 48 h, read-out: IC50 ± SEM MDA-MB-231
  IC50: 14.3 ± 1.03 µM
[1]; MTT, 48 h, read-out: IC50 MDA-MB-231
  IC50: 14.3 µM
